According to ChEMBL document CHEMBL4831556, “Discovery of a Novel Potent and Selective Calcium Release-Activated Calcium Channel Inhibitor: 2,6-Difluoro-N-(2'-methyl-3'-(4-methyl-5-oxo-4,5-dihydro-1,3,4-oxadiazol-2-yl)-[1,1'-biphenyl]-4-yl)benzamide. Structure-Activity Relationship and Preclinical Characterization” (J Med Chem, 2021):
Several values for one entry are separate records, joined by “and”; a condition that tells them apart may be missing. Equal values may be shown once. One block for each compound: values may come before it.

Legend:
[1] = AUClast in Lewis rat at 10 mg/kg, po measured upto 24 hrs by LC-MS/MS analysis; type: ADME, organism-based; parameters: route oral, dose 10 mg/kg, time <=24; conditions: in vivo
[2] = AUClast in BALB/c mouse at 1 mg/kg, iv measured upto 24 hrs by LC-MS/MS analysis; type: ADME, organism-based; parameters: route intravenous, dose 1 mg/kg, time <=24; conditions: in vivo
[3] = Cmax in BALB/c mouse at 10 mg/kg, po measured upto 24 hrs by LC-MS/MS analysis; type: ADME, organism-based; parameters: route oral, dose 10 mg/kg, time <=24; conditions: in vivo
[4] = Tmax in BALB/c mouse at 10 mg/kg, po measured upto 24 hrs by LC-MS/MS analysis; type: ADME, organism-based; conditions: in vivo
[5] = Half life in BALB/c mouse at 1 mg/kg, iv measured upto 24 hrs by LC-MS/MS analysis; type: ADME, organism-based; conditions: in vivo
[6] = Clearance in BALB/c mouse at 1 mg/kg, iv measured upto 24 hrs by LC-MS/MS analysis; type: ADME, organism-based; conditions: in vivo
[7] = Oral bioavailability in BALB/c mouse at 10 mg/kg measured upto 24 hrs by LC-MS/MS analysis; type: ADME, organism-based; conditions: in vivo
[8] = Apparent permeability across apical to basolateral side in human Caco-2 cells at 5 uM measured upto 120 mins in orbital shaker; type: ADME, cell-based
Cytochrome P450 2B6 = molecular target: T1, Cytochrome P450 2B6 (Homo sapiens, UniProt P20813); experiment: Inhibition of CYP2B6 in human liver microsomes at 10 uM by LC-MS/MS analysis; type: ADME
T1 sequence (P20813 whole entry): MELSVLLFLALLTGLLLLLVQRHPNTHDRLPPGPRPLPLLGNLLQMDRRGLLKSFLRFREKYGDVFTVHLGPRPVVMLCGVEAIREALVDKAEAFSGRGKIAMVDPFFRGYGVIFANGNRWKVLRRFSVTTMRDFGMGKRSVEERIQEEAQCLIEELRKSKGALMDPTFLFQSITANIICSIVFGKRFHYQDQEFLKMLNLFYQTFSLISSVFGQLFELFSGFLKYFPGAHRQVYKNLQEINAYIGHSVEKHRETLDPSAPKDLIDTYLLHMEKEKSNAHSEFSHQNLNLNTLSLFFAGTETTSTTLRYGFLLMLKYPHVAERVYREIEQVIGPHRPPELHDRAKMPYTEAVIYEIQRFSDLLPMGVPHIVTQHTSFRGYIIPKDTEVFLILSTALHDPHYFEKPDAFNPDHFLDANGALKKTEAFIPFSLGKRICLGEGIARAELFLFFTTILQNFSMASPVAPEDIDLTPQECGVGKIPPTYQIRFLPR

Cytochrome P450 2C19 = Cytochrome P450 2C19 (Homo sapiens, UniProt P33261); experiment: Inhibition of CYP2C19 in human liver microsomes at 10 uM by LC-MS/MS analysis; type: ADME
Chain of Cytochrome P450 2C19 (P33261 whole entry): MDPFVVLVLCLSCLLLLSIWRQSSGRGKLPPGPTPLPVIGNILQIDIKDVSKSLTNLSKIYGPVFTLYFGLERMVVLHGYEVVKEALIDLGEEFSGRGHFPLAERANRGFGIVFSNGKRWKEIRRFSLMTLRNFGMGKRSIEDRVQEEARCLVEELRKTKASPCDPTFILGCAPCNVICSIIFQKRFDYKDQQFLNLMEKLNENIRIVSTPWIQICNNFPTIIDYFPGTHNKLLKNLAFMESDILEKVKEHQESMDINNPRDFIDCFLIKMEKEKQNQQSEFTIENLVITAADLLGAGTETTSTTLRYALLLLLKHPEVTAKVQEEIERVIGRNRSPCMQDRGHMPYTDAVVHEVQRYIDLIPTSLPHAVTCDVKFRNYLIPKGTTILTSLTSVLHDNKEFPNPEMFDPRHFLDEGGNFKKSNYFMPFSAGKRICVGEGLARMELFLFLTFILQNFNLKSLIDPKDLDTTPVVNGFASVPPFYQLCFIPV

[9] = Tmax in BALB/c mouse model of mBSA-induced delayed type hypersensitivity at 3 mg/kg, po administered twice daily for 7 days followed by mBSA challenge and measured after 24 hrs; type: ADME, organism-based; conditions: in vivo, time 8 day
[10] = Tmax in BALB/c mouse model of mBSA-induced delayed type hypersensitivity at 10 mg/kg, po administered twice daily for 7 days followed by mBSA challenge and measured after 24 hrs; type: ADME, organism-based; conditions: in vivo, time 8 day
[11] = Cmax in BALB/c mouse model of mBSA-induced delayed type hypersensitivity at 1 mg/kg, po administered twice daily for 7 days followed by mBSA challenge and measured after 24 hrs; type: ADME, organism-based; parameters: route oral, time 8 day, dose 1 mg/kg; conditions: in vivo
[12] = Cmax in BALB/c mouse model of mBSA-induced delayed type hypersensitivity at 3 mg/kg, po administered twice daily for 7 days followed by mBSA challenge and measured after 24 hrs; type: ADME, organism-based; parameters: route oral, time 8 day, dose 3 mg/kg; conditions: in vivo
[13] = Cmax in BALB/c mouse model of mBSA-induced delayed type hypersensitivity at 10 mg/kg, po administered twice daily for 7 days followed by mBSA challenge and measured after 24 hrs; type: ADME, organism-based; parameters: route oral, dose 10 mg/kg, time 8 day; conditions: in vivo
[14] = AUClast in BALB/c mouse model of mBSA-induced delayed type hypersensitivity at 1 mg/kg, po administered twice daily for 7 days followed by mBSA challenge and measured after 24 hrs; type: ADME, organism-based; parameters: route oral, dose 1 mg/kg, time 8 day; conditions: in vivo
[15] = AUClast in BALB/c mouse model of mBSA-induced delayed type hypersensitivity at 3 mg/kg, po administered twice daily for 7 days followed by mBSA challenge and measured after 24 hrs; type: ADME, organism-based; parameters: route oral, time 8 day, dose 3 mg/kg; conditions: in vivo
[16] = AUClast in BALB/c mouse model of mBSA-induced delayed type hypersensitivity at 10 mg/kg, po administered twice daily for 7 days followed by mBSA challenge and measured after 24 hrs; type: ADME, organism-based; parameters: route oral, time 8 day, dose 10 mg/kg; conditions: in vivo
[17] = Tmax in CFA-induced rheumatoid arthritis Lewis rat model at 0.3 mg/kg, po administered once daily for 15 days; type: ADME, organism-based; conditions: in vivo, time 15 day
[18] = Tmax in CFA-induced rheumatoid arthritis Lewis rat model at 1 mg/kg, po administered once daily for 15 days; type: ADME, organism-based; conditions: in vivo, time 15 day
[19] = Cmax in CFA-induced rheumatoid arthritis Lewis rat model at 0.3 mg/kg, po administered once daily for 15 days; type: ADME, organism-based; parameters: route oral, dose 0.3 mg/kg, time 15 day; conditions: in vivo
[20] = AUClast in CFA-induced rheumatoid arthritis Lewis rat model at 0.3 mg/kg, po administered once daily for 15 days; type: ADME, organism-based; parameters: route oral, time 15 day, dose 0.3 mg/kg; conditions: in vivo
[21] = AUClast in CFA-induced rheumatoid arthritis Lewis rat model at 3 mg/kg, po administered once daily for 15 days; type: ADME, organism-based; parameters: route oral, time 15 day, dose 3 mg/kg; conditions: in vivo
[22] = Tmax in collagen-induced rheumatoid arthritis DBA/1J mouse model at 3 mg/kg, po administered twice daily for 15 days in presence of 0.75 mg/kg of methotrexate; type: ADME, organism-based; conditions: in vivo, time 15 day
[23] = Cmax in collagen-induced rheumatoid arthritis DBA/1J mouse model at 3 mg/kg, po administered twice daily for 15 days; type: ADME, organism-based; parameters: route oral, time 15 day, dose 3 mg/kg; conditions: in vivo
[24] = Cmax in collagen-induced rheumatoid arthritis DBA/1J mouse model at 3 mg/kg, po administered twice daily for 15 days in presence of 0.75 mg/kg of methotrexate; type: ADME, organism-based; parameters: route oral, dose 3 mg/kg, time 15 day; conditions: in vivo
[25] = AUClast in collagen-induced rheumatoid arthritis DBA/1J mouse model at 3 mg/kg, po administered twice daily for 15 days; type: ADME, organism-based; parameters: route oral, dose 3 mg/kg, time 15 day; conditions: in vivo
[26] = AUClast in collagen-induced rheumatoid arthritis DBA/1J mouse model at 3 mg/kg, po administered twice daily for 15 days in presence of 0.75 mg/kg of methotrexate; type: ADME, organism-based; parameters: route oral, dose 3 mg/kg, time 15 day; conditions: in vivo
[27] = molecular target: Voltage-gated inwardly rectifying potassium channel KCNH2 (Homo sapiens, UniProt Q12809); experiment: Inhibition of human ERG by FLIPR TETRA method
Chain of Voltage-gated inwardly rectifying potassium channel KCNH2 (Q12809 whole entry): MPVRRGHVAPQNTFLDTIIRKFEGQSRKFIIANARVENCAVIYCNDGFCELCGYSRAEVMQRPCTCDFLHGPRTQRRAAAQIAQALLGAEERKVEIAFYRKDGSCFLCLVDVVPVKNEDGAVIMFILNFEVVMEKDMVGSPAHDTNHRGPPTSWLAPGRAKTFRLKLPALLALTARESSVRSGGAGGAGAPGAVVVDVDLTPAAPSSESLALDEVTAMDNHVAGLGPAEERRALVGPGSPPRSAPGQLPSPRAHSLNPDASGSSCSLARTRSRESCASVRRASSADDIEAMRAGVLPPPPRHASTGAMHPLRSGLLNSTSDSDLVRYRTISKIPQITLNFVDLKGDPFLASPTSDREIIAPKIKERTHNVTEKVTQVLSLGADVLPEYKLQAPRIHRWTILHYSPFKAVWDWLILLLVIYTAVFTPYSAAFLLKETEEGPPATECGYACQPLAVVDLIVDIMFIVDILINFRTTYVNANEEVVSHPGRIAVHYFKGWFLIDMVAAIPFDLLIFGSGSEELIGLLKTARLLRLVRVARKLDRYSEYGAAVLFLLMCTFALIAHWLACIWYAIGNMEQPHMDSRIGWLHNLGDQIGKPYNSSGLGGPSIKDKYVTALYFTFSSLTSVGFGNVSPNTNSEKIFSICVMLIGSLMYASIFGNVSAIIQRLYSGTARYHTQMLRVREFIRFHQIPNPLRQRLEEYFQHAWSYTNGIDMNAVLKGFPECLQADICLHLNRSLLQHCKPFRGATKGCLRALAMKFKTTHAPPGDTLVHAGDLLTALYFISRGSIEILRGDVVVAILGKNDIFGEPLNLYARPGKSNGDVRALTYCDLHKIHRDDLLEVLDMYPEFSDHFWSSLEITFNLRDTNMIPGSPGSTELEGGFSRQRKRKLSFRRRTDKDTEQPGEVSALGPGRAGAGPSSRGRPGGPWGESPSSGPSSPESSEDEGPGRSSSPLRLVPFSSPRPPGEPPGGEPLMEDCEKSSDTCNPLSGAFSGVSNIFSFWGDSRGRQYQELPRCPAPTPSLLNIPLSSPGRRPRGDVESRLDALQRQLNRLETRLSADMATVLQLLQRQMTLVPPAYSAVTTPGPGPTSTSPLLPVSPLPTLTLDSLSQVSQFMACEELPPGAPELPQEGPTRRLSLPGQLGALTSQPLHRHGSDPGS

[28] = Toxicity in mouse assessed as maximum tolerated dose; conditions: in vivo
[29] = Toxicity in rat assessed as minimum effective dose; conditions: in vivo
[30] = AUClast in rat at 1 mg/kg/day; type: ADME, organism-based; parameters: time 0 - last, dose 1 mg/kg/day; conditions: in vivo
[31] = Cmax in human at […] measured on day 14; type: ADME, organism-based; parameters: time 14 day; conditions: in vivo
[32] = Cmax in rat at 60 mg/kg/day after 2 weeks; type: ADME, organism-based; parameters: time 2 weeks, dose 60 mg/kg/day; conditions: in vivo
[33] = AUC(0 to t) in rat at 60 mg/kg/day after 2 weeks; type: ADME, organism-based; parameters: dose 60 mg/kg/day, time 2 weeks; conditions: in vivo
[34] = Cmax in rat at 60 mg/kg/day after 13 weeks; type: ADME, organism-based; parameters: time 13 weeks, dose 60 mg/kg/day; conditions: in vivo
Tumor necrosis factor = Tumor necrosis factor (Homo sapiens, UniProt P01375); experiment: Inhibition of TNF-alpha in thapsigargin stimulated human whole blood; type: tissue-based
Chain of Tumor necrosis factor (P01375 whole entry): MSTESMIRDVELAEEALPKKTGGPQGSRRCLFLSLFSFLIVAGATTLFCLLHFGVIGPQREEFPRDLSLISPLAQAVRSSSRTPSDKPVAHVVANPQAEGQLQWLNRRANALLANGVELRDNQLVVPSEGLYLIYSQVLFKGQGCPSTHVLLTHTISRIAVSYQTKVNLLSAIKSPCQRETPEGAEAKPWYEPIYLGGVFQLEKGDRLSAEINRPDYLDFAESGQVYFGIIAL

[35] = Cmax in human whole blood at 80 mg, bid; type: ADME, tissue-based; parameters: dose 80 mg
[36] = Cmax in human whole blood at 80 mg, qd; type: ADME, tissue-based; parameters: dose 80 mg
[37] = Half life in Lewis rat at 10 mg/kg, po measured upto 24 hrs by LC-MS/MS analysis; type: ADME, organism-based; conditions: in vivo

SMILES: Cc1c(-c2ccc(NC(=O)c3c(F)cccc3F)cc2)cccc1-c1nn(C)c(=O)o1
- AUC(0-t) at 24 h [1]: 353 µM·h
- AUC(0-t) at 24 h [2]: 7.1 µM·h
- Cmax [3]: 4000 nM
- Tmax [4]: 1 h
- half-life [5]: 6.4 h
- clearance [6]: 5.2 mL/min/kg
- bioavailability [7]: 79%
- Papp A→B at 2 h, 5 µM [8]: 14.1 ×10⁻⁶ cm/s
- inhibition (INH) (Cytochrome P450 2B6): Not Active
- inhibition (INH) (Cytochrome P450 2C19): Not Active
- Tmax [9]: 2 h
- Tmax [10]: 2 h
- Cmax [11]: 600 nM
- Cmax [12]: 1600 nM
- Cmax [13]: 3300 nM
- AUC(0-t) at 192 h [14]: 3.1 µM·h
- AUC(0-t) at 192 h [15]: 8.3 µM·h
- AUC(0-t) at 192 h [16]: 17 µM·h
- Tmax [17]: 2 h
- Tmax [18]: 2 h
- Cmax [19]: 600 nM
- AUC(0-t) at 360 h [20]: 10 µM·h
- AUC(0-t) at 360 h [21]: 80 µM·h
- Tmax [22]: 2 h
- Cmax [23]: 1900 nM
- Cmax [24]: 1600 nM
- AUC(0-t) at 360 h [25]: 12 µM·h
- AUC(0-t) at 360 h [26]: 13 µM·h
- IC50 [27]: > 10000 nM
- MTD [28]: 2000 mg/kg
- MED [29]: 1 mg/kg
- AUC(0-t) [30]: 36 µM·h and 15200 ng·h/mL
- Cmax [31]: 530 ng/mL
- Cmax [32]: 5440 ng/mL
- AUC(0-t) at 336 h [33]: 76700 ng·h/mL
- Cmax [34]: 4680 ng/mL
- IC50 (Tumor necrosis factor): 694 nM
- Cmax [35]: 1570 nM
- Cmax [36]: 950 nM

- AUC(0-t) at 24 h [1]: 167 µM·h
- half-life [37]: 16 h
- AUC(0-t) at 24 h [2]: 4 µM·h
- Cmax [3]: 4700 nM
- Tmax [4]: 1 h
- half-life [5]: 5 h
- clearance [6]: 8 mL/min/kg
- bioavailability [7]: 100%
- Papp A→B at 2 h, 5 µM [8]: 12.3 ×10⁻⁶ cm/s
- inhibition (INH) (Cytochrome P450 2B6): Not Active
- inhibition (INH) (Cytochrome P450 2C19): Not Active
SMILES: Cc1c(-c2ccc(NC(=O)c3c(F)cccc3Cl)cc2)cccc1-c1nn(C)c(=O)o1
